Reference: paper PMC7845692 (Frontiers in Pharmacology, 2020)
Counter-ions that a name gives are not always drawn. Like-named read-outs stand apart in the source and are kept apart here.

Columns and labels:
[1] = system: Feline infectious peritonitis virus; experiment: anti-FIPV activity, cytopathic effect by visualization in Fcwf-4 cells; conditions: for EC50: Alphacoronavirus 1, read-out: Feline infectious peritonitis virus EC50 CPE/visualization; for Feline infectious peritonitis virus Selectivity index: CC50/EC50, Fcwf-4 cells
Method: (§2) The serotype II FIPV Taiwan isolate NTU156 strain, a kind gift from National Taiwan University, was propagated and titrated in Fcwf-4 cells ([Lin et al., 2009]). The EC50 for anti-FIPV activity and CC50 for cell cytotoxicity were determined as previously described ([Yang et al., 2020b]).

Human coronavirus OC43 = experiment: HCoV-OC43 immunofluorescent assay (IFA) against N protein in HCT-8 cells; format: cell-based; conditions: for EC50: read-out: Human coronavirus OC43 EC50 (IFA); for Human coronavirus OC43 Selectivity index: CC50/EC50, HCT-8 cells
in vitro [2] = conditions: cat
Method: as §2

in vitro [3] = conditions: human
SARS-CoV-2 [4] = experiment: SARS-CoV-2 IFA against N protein in Vero E6 cells; format: cell-based; conditions: for SARS-CoV-2 Selectivity index (IFA/CCK-8): CC50/EC50, Vero E6 cells
Method: (§1) CPE was performed as described ([Wu et al., 2004]). For IFA, Vero E6 cells (BCRC number: 60476; derived from ATCC CRL-1586) were treated with each compound at the indicated concentration for 1 h at 37°C. The cells were adsorbed with SARS-CoV-2 (TCDC#4) (sequence available on the GISAID website) at an MOI = 0.01 for 1 h at 37°C. After virus adsorption, the cells were washed with PBS and fresh medium containing each compound at the indicated concentration was added. After 2 days, cells were fixed with 4% paraformaldehyde and permeabilized with 0.5% Triton X-100. The cells were stained with anti-SARS-CoV-2 N protein antibody, provided by Dr. An-Suei Yang of the Genomics Research Center, Academia Sinica, and goat anti-human IgG-Alexa Fluor 488 (A11013, Invitrogen) (in green). The nuclei were counter stained with DAPI (in blue) (D1306, Invitrogen). The N protein expression was measured using a high-content image analysis system (Molecular Devices). The cell viability was determined by Cell Counting Kit-8 (CCK-8) (Sigma-Aldrich, cat #96992). EC50 and CC50 values were calculated by Prism software.

HCoV-229E [5] = experiment: HCoV-229E viral yield, end point dilution assay / TCID50; conditions: MRC-5, MOI 0.05; for complete reduction of HCoV-229E viral yield: at 100, 300 and 600 nM respectively (dbq33b, dbq33b4p7, PI09); for concentration giving complete reduction of HCoV-229E viral yield: reduction 6–7 log
[6] = Vero E6 cell viability (CCK-8); format: cell-based; conditions: African green monkey, Vero E6 cells; read-out: SARS-CoV-2 CC50 CCK-8
Method: as §1

SARS-CoV-2 [7] = experiment: SARS-CoV-2 cytopathic effect by visualization in Vero E6 cells; format: cell-based; conditions: for SARS-CoV-2 Selectivity index (CPE/visualization): CC50/EC50, Vero E6 cells
Method: as §1

[8] = cell cytotoxicity by visualization (FIPV host cells); conditions: cat
Method: as §2

HCoV-OC43 = HCoV-OC43 viral yield, end point dilution assay / TCID50; format: cell-based, Human coronavirus OC43; conditions: for concentration accomplishing complete reduction of HCoV-OC43 viral yield: HCT-8, MOI 0.05, reduction ∼7–8 log
in vitro [9] = conditions: human, MRC-5 cells
[10] = Vero E6 cytotoxicity by visualization; format: cell-based; conditions: African green monkey, Vero E6 cells; read-out: SARS-CoV-2 CC50 Visualization
Method: as §1

HCoV-229E [11] = experiment: HCoV-229E viral RNA (ORF1, ORF N) by semi-RT-qPCR in MRC-5 cells; format: cell-based, Human coronavirus 229E; conditions: MRC-5, MOI 1, 30 h.p.i., 10–300 nM, dose dependent
Method: These experiments were performed as described ([Yang et al., 2007b]). Mock or HCoV-229E infected (MOI of 1) lysates were processed and prepared at 30 h.p.i. without or with compound treatment. The total RNA was extracted with TRIzol reagent (Invitrogen). The relative viral RNA expression levels were determined by semi-RT-qPCR, analyzed with the ImageJ Analyzer program (http://imagej.nih.gov/ij/index.html), and normalized with the housekeeping gene GAPDH. The primers used to amplify the PCR products were 5′-GGCGAGGTGGAATTTGTTTA-3′ and 5′-ACCTTTAAGCCACCATGTGC-3′ for ORF1; 5′-TCTGCCAAGAGTCTTGCTCG-3′ and 5′-AGCATAGCAGCTGTTGACGG-3′ for ORF N. The amplification of target cDNA was conducted under the following conditions: 25 cycles of 95°C for 30 s, 55°C for 20 s, and 72°C for 30 s for ORF N; 29 cycles of 95°C for 30 s, 55°C for 20 s, and 72°C for 30 s for ORF1, and 35 cycles of 95°C for 30 s, 55°C for 20 s, and 72°C for 30 s for GAPDH. The final PCR products were subjected to electrophoresis on 2% agarose gel containing ethidium bromide along with DNA markers.

Human coronavirus 229E = experiment: HCoV-229E cytopathic effect, crystal violet absorbance in MRC-5 cells; conditions: CC50/EC50, MRC-5 cells
[12] = HCT-8 cell viability (MTS); conditions: human, HCT-8 cells
SARS-CoV-2 [13] = experiment: microbe, parasite or virus in culture; format: cell-based
[14] = Betacoronavirus 1, OC43, HCT-8 cells, MOI 0.05, 72 h.p.i., means ± SD
[15] = Betacoronavirus 1, OC43, HCT-8, 72 h
[16] = Severe acute respiratory syndrome coronavirus 2, Vero C1008, 48 h, read-out: SARS-CoV-2 EC50 IFA, Vero E6 cells, MOI 0.01, 2 d.p.i., N protein
[17] = Vero E6 cells, MOI 0.01, 2 d.p.i., N protein, read-out: SARS-CoV-2 EC50 IFA
[18] = Severe acute respiratory syndrome coronavirus 2, Vero C1008, Vero E6 cells, means from duplicate, read-out: SARS-CoV-2 EC50 CPE/visualization
[19] = HCT-8, MOI 0.05, supernatant 72 h.p.i., at 30, 100 and 300 nM respectively (dbq33b, dbq33b4p7, PI09)

| SMILES | EC50 [1] [nM] | Feline infectious peritonitis virus Selectivity index [1] | EC50 (Human coronavirus OC43; [14]) [nM] | Human coronavirus OC43 Selectivity index (Human coronavirus OC43) | CC50 (in vitro [2]) [nM] | CC50 (in vitro [3]) [nM] | EC50 (Human coronavirus OC43; [15]) [nM] | SARS-CoV-2 Selectivity index (IFA/CCK-8) (SARS-CoV-2 [4]) | EC50 (SARS-CoV-2 [4]; [16]) [nM] | complete reduction of HCoV-229E viral yield (HCoV-229E [5]) | concentration giving complete reduction of HCoV-229E viral yield (HCoV-229E [5]) [nM] | CC50 [6] [nM] | CC50 [8] [nM] | concentration accomplishing complete reduction of HCoV-OC43 viral yield (HCoV-OC43) [nM] | CC50 (in vitro [9]) [nM] | CC50 [10] [nM] | effect on HCoV-229E viral genome replication and subgenomic viral RNA syntheses (RT-PCR ORF1, ORF N) (HCoV-229E [11]) | Human coronavirus 229E Selectivity index (Human coronavirus 229E) | EC50 (SARS-CoV-2 [4]; [17]) [nM] | CC50 at 72 h [12] [nM] | also measured |
| --- | --- | --- | --- | --- | --- | --- | --- | --- | --- | --- | --- | --- | --- | --- | --- | --- | --- | --- | --- | --- | --- |
| C[C@H]1O[C@@H](O[C@H]2[C@@H](O)C[C@H](O[C@H]3[C@@H](O)C[C@H](O[C@H]4CC[C@@]5(C)[C@H](CC[C@@H]6[C@@H]5CC[C@]5(C)[C@@H](C7=CC(=O)OC7)CC[C@]65O)C4)O[C@@H]3C)O[C@@H]2C)C[C@H](O)[C@@H]1O [Digitoxin, digitoxin] | 97 ± 6 | 8.5 | 88 ± 16 | 10.3 | 825 ± 195 | 909 ± 123 |  |  |  |  |  |  |  |  |  |  |  |  |  |  |  |
| C[C@]12CCC(=NOCCN)C[C@@H]1C(=O)C[C@@H]1[C@@H]2CC[C@]2(C)C(=O)CC[C@@H]12 [Istaroxime, istaroxime hydrochloride] | 2160 | 3.3 |  | 5.9 | 7120 ± 750 |  | 5420 ± 268 |  |  |  |  |  |  |  |  |  |  |  |  |  | CC50 at 72 h (in vitro [3]): 32000 nM |
| COc1cc2c3c(c4cc(OC)c(OC)cc4c2cc1OC)CN1CCCC1C3 (stereo not shown) [PI09] | 62 ± 25 | 102.8 | 68 ± 3 | >147 |  | > 10000 |  | 46 | 77 | 6–7 log of magnitudes | 600 | 3550 | 6380 ± 2250 | 300 | 6640 | 5000 | inhibited HCoV-229E viral genome replication and subgenomic viral RNA syntheses | 93 |  |  | EC50 (SARS-CoV-2 [4]; read-out: SARS-CoV-2 EC50 IFA, Vero E6 cells, MOI 0.01, 2 d.p.i., N protein): 76.8 nM; EC50 (SARS-CoV-2 [7]; Severe acute respiratory syndrome coronavirus 2, Vero C1008, read-out: SARS-CoV-2 EC50 CPE/visualization): 78 nM; complete reduction of HCoV-OC43 viral yield (HCoV-OC43): 7–8 log of magnitudes |
| CCN1Cc2c(c3ccc(OC)cc3c3cc(OC)c(OC)cc23)C(O)C1C (stereo not shown) [dbq33b4p7] | 20 ± 7 | 312.5 |  | >179 |  |  | 56 ± 6 | 93 | 32 | 6–7 log of magnitudes | 300 | 2970 | 6250 ± 2160 | 100 | 7360 | 2500 | inhibited HCoV-229E viral genome replication and subgenomic viral RNA syntheses | 290 | 31.9 | > 10000 | SARS-CoV-2 Selectivity index (CPE/visualization) (SARS-CoV-2 [7]): 125; EC50 (SARS-CoV-2 [7]; [18]): 20 nM; complete reduction of HCoV-OC43 viral yield (HCoV-OC43; [19]): 7–8 log of magnitudes |
| CCN1Cc2c(c3ccc(OC)cc3c3cc(OC)c(OC)cc23)C(O)C1 (stereo not shown) [dbq33b] | 8 ± 2 | 390.6 |  | >610 |  |  | 16 ± 5 | 367 | 14 | 6–7 log of magnitudes | 100 | 5100 | 3120 | 30 | 1710 | 1250 | inhibited HCoV-229E viral genome replication and subgenomic viral RNA syntheses | 264 | 13.9 | > 10000 | SARS-CoV-2 Selectivity index (CPE/visualization) (SARS-CoV-2 [7]): 500; EC50 (SARS-CoV-2 [7]; [18]): 2.5 nM; EC50 (SARS-CoV-2 [13]; Severe acute respiratory syndrome coronavirus 2, Vero C1008, read-out: SARS-CoV-2 plaque assay EC50, Vero E6 cells): 14 nM; EC50 (SARS-CoV-2 [13]; Severe acute respiratory syndrome coronavirus 2, Vero C1008, read-out: SARS-CoV-2 plaque assay EC50, Vero E6 cells, 5–7 days, Figure 5B-b): 13.8 ± 0.3 nM; complete reduction of HCoV-OC43 viral yield (HCoV-OC43; [19]): 7–8 log of magnitudes |
